Measured values reported in ChEMBL document CHEMBL1136972, “Repenins A-D, four new antioxidative coumarinolignoids from Duranta repens Linn” (Bioorg Med Chem Lett, 2009).

System: Radical scavenging activity
Assay: Antioxidant activity assessed as DPPH free radical scavenging activity
Type: functional

| SMILES | IC50 |
| --- | --- |
| COc1ccc(O)c(C(C)(C)C)c1.COc1ccc(O)cc1C(C)(C)C [BUTYLATED HYDROXYANISOLE] | 43 µM |
| COc1cc([C@H]2Oc3c(OC)cc4ccc(=O)oc4c3O[C@@H]2CO)ccc1O [CLEOMISCOSIN A] | 612 µM |
| COc1cc([C@H]2Oc3c(OC)cc4ccc(=O)oc4c3O[C@@H]2COC(C)=O)ccc1O [DURANTIN A] | 625 µM |

Results, then the compound that gave them:

| IC50 | SMILES |
| --- | --- |
| 530 µM | COc1cc([C@H]2Oc3c(OC)cc4ccc(=O)oc4c3O[C@@H]2COC(=O)/C=C/c2ccc(O)cc2)ccc1O [REPENIN A] |
| 420 µM | COc1cc(/C=C/C(=O)OC[C@H]2Oc3c(c(OC)cc4ccc(=O)oc34)O[C@@H]2c2ccc(O)c(OC)c2)ccc1O [REPENIN B] |
| 450 µM | COc1cc([C@H]2Oc3c(OC)cc4ccc(=O)oc4c3O[C@@H]2COC(=O)/C=C/c2ccc(O)c(O)c2)ccc1O [REPENIN C] |
| 510 µM | COc1cc([C@H]2Oc3c(OC)cc4ccc(=O)oc4c3O[C@@H]2COC(=O)c2ccc(O)c(O)c2)cc(OC)c1O [REPENIN D] |
